Measurements taken from ChEMBL document CHEMBL5257114, “Discovery of imidazo[1,2-b]pyridazine macrocyclic derivatives as novel ALK inhibitors capable of combating multiple resistant mutants” (Bioorg Med Chem Lett, 2023).
pIC50: −log10 of the molar value.

Key:
[1] = molecular target: ALK tyrosine kinase receptor (Homo sapiens, UniProt Q9UM73); assay: Inhibition of wild type ALK (unknown origin)
[2] = molecular target: ALK tyrosine kinase receptor (Homo sapiens, UniProt Q9UM73, G1202R); assay: Inhibition of ALK G1202R mutant (unknown origin)
[3] = Inhibition of ALK L1196M/G1202R mutant (unknown origin); set-up: species or system Homo sapiens
KARPAS-299 = assay: Antiproliferative activity against human KARPAS-299 cells assessed as cell growth inhibition by CCK-8 assay
[4] = Metabolic stability in human liver microsomes assessed as parent compound remaining measured after 60 mins; assay type: ADME, Microsome; details: read-out: Stability
BaF3 = assay: Antiproliferative activity against EML4-ALK-L1196M/G1202R mutated mouse BaF3 cells assessed as cell growth inhibition by CCK-8 assay; assay type: functional, cell-based
[5] = Antiproliferative activity against mouse Ba/F3 EML4-ALK-G1202R cells assessed as cell growth inhibition by CCK-8 assay; assay type: functional, cell-based
[6] = Metabolic stability in human liver microsomes assessed as half life; assay type: ADME, Microsome
[7] = Metabolic stability in human liver microsomes assessed as clearance; assay type: ADME, Microsome; details: read-out: CLH

Chain of ALK tyrosine kinase receptor (Homo sapiens, UniProt Q9UM73, G1202R) (Q9UM73 19-1620 G1202R limits assumed): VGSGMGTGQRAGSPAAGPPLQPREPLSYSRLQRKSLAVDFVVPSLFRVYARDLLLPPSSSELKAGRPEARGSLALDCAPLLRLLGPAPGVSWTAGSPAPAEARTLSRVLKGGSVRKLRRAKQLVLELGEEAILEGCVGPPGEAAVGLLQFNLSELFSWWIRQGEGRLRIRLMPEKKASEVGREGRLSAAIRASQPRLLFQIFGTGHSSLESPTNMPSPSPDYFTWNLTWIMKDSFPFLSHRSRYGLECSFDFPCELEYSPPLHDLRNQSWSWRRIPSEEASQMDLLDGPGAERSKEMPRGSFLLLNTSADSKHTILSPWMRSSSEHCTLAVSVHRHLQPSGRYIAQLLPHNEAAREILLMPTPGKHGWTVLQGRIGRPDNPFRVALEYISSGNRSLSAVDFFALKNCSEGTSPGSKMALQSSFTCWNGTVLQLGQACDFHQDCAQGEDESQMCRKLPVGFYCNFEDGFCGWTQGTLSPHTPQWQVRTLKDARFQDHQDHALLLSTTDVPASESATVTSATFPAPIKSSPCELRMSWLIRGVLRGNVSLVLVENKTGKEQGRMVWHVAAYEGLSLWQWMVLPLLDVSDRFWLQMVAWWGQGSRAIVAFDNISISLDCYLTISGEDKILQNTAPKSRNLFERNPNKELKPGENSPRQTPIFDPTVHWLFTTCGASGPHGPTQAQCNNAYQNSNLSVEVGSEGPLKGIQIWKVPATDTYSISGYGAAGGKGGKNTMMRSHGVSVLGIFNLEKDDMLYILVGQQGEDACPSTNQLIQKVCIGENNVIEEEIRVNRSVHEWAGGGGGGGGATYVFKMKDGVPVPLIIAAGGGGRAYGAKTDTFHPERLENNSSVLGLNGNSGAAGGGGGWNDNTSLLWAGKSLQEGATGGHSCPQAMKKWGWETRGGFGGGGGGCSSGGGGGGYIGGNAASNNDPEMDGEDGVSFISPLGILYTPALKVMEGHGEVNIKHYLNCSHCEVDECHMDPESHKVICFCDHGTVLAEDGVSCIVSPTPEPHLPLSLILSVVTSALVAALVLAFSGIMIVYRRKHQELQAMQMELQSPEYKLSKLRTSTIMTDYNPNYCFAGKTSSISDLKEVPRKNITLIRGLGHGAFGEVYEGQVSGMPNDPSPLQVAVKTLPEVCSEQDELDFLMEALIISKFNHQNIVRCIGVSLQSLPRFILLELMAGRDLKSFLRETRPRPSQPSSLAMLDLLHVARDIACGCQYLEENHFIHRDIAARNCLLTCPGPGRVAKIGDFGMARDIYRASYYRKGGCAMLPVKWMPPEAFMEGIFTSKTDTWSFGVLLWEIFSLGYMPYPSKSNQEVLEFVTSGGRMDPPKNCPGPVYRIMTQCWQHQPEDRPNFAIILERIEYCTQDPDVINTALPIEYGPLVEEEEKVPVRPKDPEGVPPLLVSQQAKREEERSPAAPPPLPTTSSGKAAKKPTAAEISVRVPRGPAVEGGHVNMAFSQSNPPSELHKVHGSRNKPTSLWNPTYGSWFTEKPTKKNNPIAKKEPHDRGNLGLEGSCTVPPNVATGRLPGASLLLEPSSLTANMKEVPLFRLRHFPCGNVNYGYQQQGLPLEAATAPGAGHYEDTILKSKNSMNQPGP
Chain of ALK tyrosine kinase receptor (Homo sapiens, UniProt Q9UM73) (Q9UM73 whole entry): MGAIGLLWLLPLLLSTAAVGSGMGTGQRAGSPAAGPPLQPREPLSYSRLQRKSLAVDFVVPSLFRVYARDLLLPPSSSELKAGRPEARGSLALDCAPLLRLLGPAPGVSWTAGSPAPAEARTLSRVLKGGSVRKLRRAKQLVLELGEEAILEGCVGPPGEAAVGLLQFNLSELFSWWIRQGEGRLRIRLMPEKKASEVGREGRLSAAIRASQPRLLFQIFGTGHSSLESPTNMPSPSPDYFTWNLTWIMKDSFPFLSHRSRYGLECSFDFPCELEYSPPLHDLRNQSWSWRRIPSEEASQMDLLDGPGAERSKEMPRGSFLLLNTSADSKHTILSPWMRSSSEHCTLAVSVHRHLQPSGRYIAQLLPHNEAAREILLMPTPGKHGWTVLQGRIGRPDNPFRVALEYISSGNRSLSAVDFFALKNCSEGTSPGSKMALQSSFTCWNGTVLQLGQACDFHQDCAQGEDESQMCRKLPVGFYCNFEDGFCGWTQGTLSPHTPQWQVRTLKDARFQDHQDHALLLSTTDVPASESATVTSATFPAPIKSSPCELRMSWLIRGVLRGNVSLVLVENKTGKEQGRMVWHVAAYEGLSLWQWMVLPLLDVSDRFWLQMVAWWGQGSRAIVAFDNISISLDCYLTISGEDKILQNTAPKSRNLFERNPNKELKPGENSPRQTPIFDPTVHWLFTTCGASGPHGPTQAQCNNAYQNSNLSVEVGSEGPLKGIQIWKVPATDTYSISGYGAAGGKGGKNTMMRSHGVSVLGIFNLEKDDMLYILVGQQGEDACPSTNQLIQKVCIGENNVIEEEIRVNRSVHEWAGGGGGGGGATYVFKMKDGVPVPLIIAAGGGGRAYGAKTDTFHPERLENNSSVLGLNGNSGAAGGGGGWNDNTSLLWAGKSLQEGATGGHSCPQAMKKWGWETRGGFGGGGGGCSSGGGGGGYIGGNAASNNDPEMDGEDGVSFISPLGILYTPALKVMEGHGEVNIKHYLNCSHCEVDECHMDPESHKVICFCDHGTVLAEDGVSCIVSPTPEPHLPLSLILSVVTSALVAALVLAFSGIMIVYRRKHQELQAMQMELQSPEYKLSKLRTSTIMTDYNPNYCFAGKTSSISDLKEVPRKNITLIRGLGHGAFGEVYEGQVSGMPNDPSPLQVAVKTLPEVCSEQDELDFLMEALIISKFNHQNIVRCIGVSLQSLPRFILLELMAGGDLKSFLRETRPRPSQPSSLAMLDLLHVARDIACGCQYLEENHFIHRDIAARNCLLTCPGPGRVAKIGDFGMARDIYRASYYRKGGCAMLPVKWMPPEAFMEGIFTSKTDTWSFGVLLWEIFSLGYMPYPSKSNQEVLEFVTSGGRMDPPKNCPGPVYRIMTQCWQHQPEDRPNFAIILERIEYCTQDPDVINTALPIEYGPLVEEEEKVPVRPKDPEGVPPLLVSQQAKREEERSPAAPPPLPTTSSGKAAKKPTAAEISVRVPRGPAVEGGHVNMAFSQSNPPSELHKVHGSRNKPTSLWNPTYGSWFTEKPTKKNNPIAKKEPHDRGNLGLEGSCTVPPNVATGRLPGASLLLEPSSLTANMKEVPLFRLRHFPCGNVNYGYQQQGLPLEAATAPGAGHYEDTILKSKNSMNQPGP

Structure (SMILES) | pIC50 [1] | pIC50 [2] | pIC50 [3] | pIC50 (KARPAS-299) | remaining at 1 h [4] [%] | pIC50 (BaF3) | pIC50 [5] | half-life [6] [min] | microsomal CLint [7] [µL/min/mg]
Cc1cc2ncc3n2nc1N[C@H](C)c1cc(F)ccc1OCC1(CC1)NC3=O | 7.74 | 7.33 | 7.07 | – | – | – | – | – | –
C[C@H]1Nc2ccc3ncc(n3n2)C(=O)NC2(CC2)COc2ccc(Cl)cc21 | 7.54 | 7.25 | 6.98 | – | – | – | – | – | –
CC1(C)COc2ccc(F)cc2CNc2ccc3ncc(n3n2)C(=O)N1 | 7.72 | 7.70 | 7.43 | – | – | – | – | – | –
CN1Cc2cc(F)ccc2OCC(C)(C)NC(=O)c2cnc3ccc1nn23 | 7.60 | 7.72 | 7.02 | – | – | – | – | – | –
CC1(C)COc2ccc(F)cc2CN(C2CC2)c2ccc3ncc(n3n2)C(=O)N1 | 7.11 | 7.09 | 6.51 | – | – | – | – | – | –
C[C@@H]1Nc2ccc3ncc(n3n2)C(=O)NC2(CC2)COc2ccc(F)cc21 | 6.32 | 6.00 | – | – | – | – | – | – | –
C[C@H]1Nc2ccc3ncc(n3n2)C(=O)NC2(CCC2)COc2ccc(F)cc21 | 8.12 | 8.33 | 7.74 | – | – | – | – | – | –
C[C@H]1CNC(=O)c2cnn3ccc(nc23)N[C@H](C)c2cc(F)ccc2O1 [REPOTRECTINIB] | – | – | 7.70 | 7.40 | 46.1 | 6.68 | 6.79 | 54.1 | 25.6
C[C@H]1Nc2ccc3ncc(n3n2)C(=O)NC2(CC2)COc2ccc(F)cc21 | 8.38 | 8.10 | 7.62 | 7.41 | 28.8 | 7.12 | 7.25 | 33.8 | 41
C[C@H]1Nc2ccc3ncc(n3n2)C(=O)NC2(CC2)COc2cc(F)ccc21 | 6.43 | 6.00 | 6.01 | – | – | – | – | – | –
C[C@H]1Nc2ccc3ncc(n3n2)C(=O)NC2(CC2)COc2ccccc21 | 7.57 | 7.01 | 6.76 | – | – | – | – | – | –
C=CC[C@H]1Nc2ccc3ncc(n3n2)C(=O)NC2(CC2)COc2ccc(F)cc21 | 8.01 | 7.19 | 7.46 | – | – | – | – | – | –
CC1(C)COc2ccc(F)cc2CN(C2CCC2)c2ccc3ncc(n3n2)C(=O)N1 | 6.80 | 6.70 | 6.35 | – | – | – | – | – | –
CC(C)N1Cc2cc(F)ccc2OCC(C)(C)NC(=O)c2cnc3ccc1nn23 | 7.00 | 6.84 | 6.48 | – | – | – | – | – | –
C[C@H]1Nc2ccc3ncc(n3n2)C(=O)NCCOc2ccc(F)cc21 | 7.89 | 7.55 | 7.23 | – | – | – | – | – | –
C[C@H]1CNC(=O)c2cnc3ccc(nn23)N[C@H](C)c2cc(F)ccc2O1 | 8.29 | 7.96 | 7.66 | 7.14 | – | 6.83 | 7.08 | – | –
CCC[C@H]1Nc2ccc3ncc(n3n2)C(=O)NC2(CC2)COc2ccc(F)cc21 | 6.38 | 6.00 | – | – | – | – | – | – | –
CCN1Cc2cc(F)ccc2OCC(C)(C)NC(=O)c2cnc3ccc1nn23 | 7.57 | 7.66 | 7.08 | – | – | – | – | – | –
C[C@H]1Nc2ccc3ncc(n3n2)C(=O)NC(C)(C)COc2ccc(F)cc21 | 8.08 | 8.19 | 7.59 | – | – | – | – | – | –
